From publication PMC5218480 (PLoS ONE, 2017) come the findings set out here.

For the assay, the system named is MV-4-11 cells. Briefly: Gene expression microarray analysis (Affymetrix PrimeView) and GSEA. Conditions: MV-4-11 cells, 48 hours. Details: RFU PODN (11730768_x_at) / Fold change /veh PODN (11730768_x_at) / RFU LINC00158 (11744669_a_at) / Fold change /veh LINC00158 (11744669_a_at) / RFU DUSP10 (11751237_a_at) / Fold change /veh DUSP10 (11751237_a_at) / RFU ID3 (11757404_x_at) / Fold change /veh ID3 (11757404_x_at) / RFU PLEKHG5 (11737974_s_at) / Fold change /veh PLEKHG5 (11737974_s_at) / RFU LRRC4B (11730491_at) / Fold change /veh LRRC4B (11730491_at) / RFU GIMAP4 (11747438_a_at) / Fold change /veh GIMAP4 (11747438_a_at) / RFU KRT8 (11758183_x_at) / Fold change /veh KRT8 (11758183_x_at) / RFU CNN1 (11734310_a_at) / Fold change /veh CNN1 (11734310_a_at) / RFU VPS37D (11726825_at) / Fold change /veh VPS37D (11726825_at) / RFU C10orf10 (11716522_x_at) / Fold change /veh C10orf10 (11716522_x_at) / RFU KIR2DL2 /// KIR2DL4 /// KIR2DL5A /// KIR2DL5B /// KIR2DS1 /// KIR2DS2 /// KIR2DS3 /// KIR2DS4 /// KIR3DL3 /// KIR3DL3 /// KIR3DS1 (11738374_at) / Fold change /veh KIR2DL2 /// KIR2DL4 /// KIR2DL5A /// KIR2DL5B /// KIR2DS1 /// KIR2DS2 /// KIR2DS3 /// KIR2DS4 /// KIR3DL3 /// KIR3DL3 /// KIR3DS1 (11738374_at) / RFU C1QL1 (11718748_at) / Fold change /veh C1QL1 (11718748_at) / RFU TMPRSS4 (11747572_a_at) / Fold change /veh TMPRSS4 (11747572_a_at) / RFU HAMP (11756126_x_at) / Fold change /veh HAMP (11756126_x_at) / RFU RNFT2 (11725882_a_at) / Fold change /veh RNFT2 (11725882_a_at) / RFU NR4A2 (11747474_a_at) / Fold change /veh NR4A2 (11747474_a_at) / RFU ABCC12 (11746883_a_at) / Fold change /veh ABCC12 (11746883_a_at) / RFU TMEM136 (11760407_x_at) / Fold change /veh TMEM136 (11760407_x_at) / RFU CLDN22 /// WWC2 (11732394_at) / Fold change /veh CLDN22 /// WWC2 (11732394_at) / RFU HLA-DPB1 (11760878_x_at) / Fold change /veh HLA-DPB1 (11760878_x_at) / RFU SPINT1 (11716480_a_at) / Fold change /veh SPINT1 (11716480_a_at) / RFU GAP43 (11754022_s_at) / Fold change /veh GAP43 (11754022_s_at) / RFU A4GNT (11735810_at) / Fold change /veh A4GNT (11735810_at) / RFU PRB3 (11715151_x_at) / Fold change /veh PRB3 (11715151_x_at) / RFU TUBB4B (11761932_at) / Fold change /veh TUBB4B (11761932_at) / RFU CAPN14 (11732068_a_at) / Fold change /veh CAPN14 (11732068_a_at) / RFU TMCC2 (11721928_a_at) / Fold change /veh TMCC2 (11721928_a_at) / RFU IRGQ (11745062_a_at) / Fold change /veh IRGQ (11745062_a_at) / RFU FAM174B (11720279_a_at) / Fold change /veh FAM174B (11720279_a_at) / RFU TMPRSS4 (11748680_a_at) / Fold change /veh TMPRSS4 (11748680_a_at) / RFU FAM212B (11763350_a_at) / Fold change /veh FAM212B (11763350_a_at) / RFU PLEKHG5 (11743358_a_at) / Fold change /veh PLEKHG5 (11743358_a_at) / RFU ZSCAN30 (11745921_a_at) / Fold change /veh ZSCAN30 (11745921_a_at) / RFU CMKLR1 (11741424_a_at) / Fold change /veh CMKLR1 (11741424_a_at) / RFU LOC101060620 /// MAPK8IP1 (11723275_at) / Fold change /veh LOC101060620 /// MAPK8IP1 (11723275_at) / RFU SPTSSB (11747773_x_at) / Fold change /veh SPTSSB (11747773_x_at) / RFU PRSS12 (11739890_at) / Fold change /veh PRSS12 (11739890_at) / RFU BIN1 (11741810_x_at) / Fold change /veh BIN1 (11741810_x_at) / RFU WNT11 (11732464_a_at) / Fold change /veh WNT11 (11732464_a_at) / RFU C10orf10 (11716521_a_at) / Fold change /veh C10orf10 (11716521_a_at) / RFU C5orf56 (11738089_at) / Fold change /veh C5orf56 (11738089_at) / RFU CYB561 (11721691_x_at) / Fold change /veh CYB561 (11721691_x_at) / RFU ANKRD19P (11752326_a_at) / Fold change /veh ANKRD19P (11752326_a_at) / RFU OR2T12 /// OR2T33 /// OR2T8 (11738714_s_at) / Fold change /veh OR2T12 /// OR2T33 /// OR2T8 (11738714_s_at) / RFU VCAN (11748164_a_at) / Fold change /veh VCAN (11748164_a_at) / RFU JSRP1 (11732532_at) / Fold change /veh JSRP1 (11732532_at) / RFU KRTAP10-11 (11738290_x_at) / Fold change /veh KRTAP10-11 (11738290_x_at) / RFU MYO3A (11730013_a_at) / Fold change /veh MYO3A (11730013_a_at) / RFU EBF3 (11725865_a_at) / Fold change /veh EBF3 (11725865_a_at) / RFU CAMK2N1 (11719241_x_at) / Fold change /veh CAMK2N1 (11719241_x_at) / RFU C5orf56 (11738088_a_at) / Fold change /veh C5orf56 (11738088_a_at) / RFU OLFML3 (11715873_a_at) / Fold change /veh OLFML3 (11715873_a_at) / RFU LOC100653217 /// NTM (11731650_a_at) / Fold change /veh LOC100653217 /// NTM (11731650_a_at) / RFU MAPK11 (11762145_a_at) / Fold change /veh MAPK11 (11762145_a_at) / RFU FIZ1 (11724087_x_at) / Fold change /veh FIZ1 (11724087_x_at) / RFU OASL (11726364_x_at) / Fold change /veh OASL (11726364_x_at) / RFU SOX15 (11748057_x_at) / Fold change /veh SOX15 (11748057_x_at) / RFU CD79A (11719716_a_at) / Fold change /veh CD79A (11719716_a_at) / RFU HIST1H1D (11736915_at) / Fold change /veh HIST1H1D (11736915_at) / RFU CASKIN2 (11723855_a_at) / Fold change /veh CASKIN2 (11723855_a_at) / RFU LOC730098 (11760151_x_at) / Fold change /veh LOC730098 (11760151_x_at) / RFU OR4N2 (11742367_at) / Fold change /veh OR4N2 (11742367_at) / RFU PRRT2 (11749266_a_at) / Fold change /veh PRRT2 (11749266_a_at) / RFU SNX32 (11753110_a_at) / Fold change /veh SNX32 (11753110_a_at) / RFU CDHR5 (11726645_a_at) / Fold change /veh CDHR5 (11726645_a_at) / RFU RCAN1 (11760418_a_at) / Fold change /veh RCAN1 (11760418_a_at) / RFU FAM167A (11723789_a_at) / Fold change /veh FAM167A (11723789_a_at) / RFU FAM26E (11764081_at) / Fold change /veh FAM26E (11764081_at) / RFU ISYNA1 (11749810_s_at) / Fold change /veh ISYNA1 (11749810_s_at) / RFU ACY1 (11761880_at) / Fold change /veh ACY1 (11761880_at) / RFU 11764098_at / Fold change /veh 11764098_at / RFU SAMD14 (11745864_x_at) / Fold change /veh SAMD14 (11745864_x_at) / RFU NPB (11741838_a_at) / Fold change /veh NPB (11741838_a_at) / RFU TMPRSS6 (11731388_a_at) / Fold change /veh TMPRSS6 (11731388_a_at) / RFU KRTAP10-2 (11738614_at) / Fold change /veh KRTAP10-2 (11738614_at) / RFU ARHGAP8 /// PRR5-ARHGAP8 (11727945_x_at) / Fold change /veh ARHGAP8 /// PRR5-ARHGAP8 (11727945_x_at) / RFU KRTAP5-7 /// NADSYN1 (11734609_at) / Fold change /veh KRTAP5-7 /// NADSYN1 (11734609_at) / RFU RASL12 (11751679_a_at) / Fold change /veh RASL12 (11751679_a_at) / RFU CDKN2B (11736163_a_at) / Fold change /veh CDKN2B (11736163_a_at) / RFU PRF1 (11729649_at) / Fold change /veh PRF1 (11729649_at) / RFU, ZNF638 /// ZNF638-IT1 / Fold change vs veh, ZNF638 /// ZNF638-IT1 / RFU, PANK3 / Fold change vs veh, PANK3 / RFU, SH3YL1 / Fold change vs veh, SH3YL1 / RFU, ZEB2 / Fold change vs veh, ZEB2 / RFU, NRIP1 / Fold change vs veh, NRIP1 / RFU, PTTG1IP / Fold change vs veh, PTTG1IP / RFU, CAPN2 / Fold change vs veh, CAPN2 / RFU, MED14 / Fold change vs veh, MED14 / RFU, SNORA58 / Fold change vs veh, SNORA58 / RFU, C1orf63 / Fold change vs veh, C1orf63 / RFU, LRRFIP1 / Fold change vs veh, LRRFIP1 / RFU, NDUFAF7 / Fold change vs veh, NDUFAF7 / RFU, SLC12A2 / Fold change vs veh, SLC12A2 / RFU, IBTK / Fold change vs veh, IBTK / RFU, ESF1 / Fold change vs veh, ESF1 / Fold change vs veh, TMEM50B / RFU, TAOK1 / Fold change vs veh, TAOK1 / RFU, ACBD3 / Fold change vs veh, ACBD3 / RFU, TMA16 / Fold change vs veh, TMA16 / RFU, RWDD3 / Fold change vs veh, RWDD3 / RFU, BCAT1 / Fold change vs veh, BCAT1 / RFU, EDEM3 / Fold change vs veh, EDEM3 / RFU, TMEM33 / Fold change vs veh, TMEM33 / RFU, WDR75 / Fold change vs veh, WDR75 / RFU, AHCTF1 / Fold change vs veh, AHCTF1 / RFU, TFRC / Fold change vs veh, TFRC / RFU, ZDHHC17 / Fold change vs veh, ZDHHC17 / RFU, NOM1 / Fold change vs veh, NOM1 / RFU, ARL8B / Fold change vs veh, ARL8B / RFU, ZBTB11 / Fold change vs veh, ZBTB11 / RFU, TAMM41 / Fold change vs veh, TAMM41 / RFU, KIAA1704 /// LOC100996395 / Fold change vs veh, KIAA1704 /// LOC100996395 / RFU, ING1 / Fold change vs veh, ING1 / RFU, TRMT61B / Fold change vs veh, TRMT61B / RFU, FUBP3 / Fold change vs veh, FUBP3 / RFU, TP53 / Fold change vs veh, TP53 / RFU, TNKS2 / Fold change vs veh, TNKS2 / RFU, ZFP14 / Fold change vs veh, ZFP14 / RFU, ACTR2 / Fold change vs veh, ACTR2 / RFU, PPP3R1 / Fold change vs veh, PPP3R1 / RFU, PIK3R1 / Fold change vs veh, PIK3R1 / RFU, HNRNPA1 / Fold change vs veh, HNRNPA1 / RFU, RNF170 / Fold change vs veh, RNF170 / RFU, ZNF28 / Fold change vs veh, ZNF28 / RFU, RNGTT / Fold change vs veh, RNGTT / RFU, OGT / Fold change vs veh, OGT / RFU, BRD1 / Fold change vs veh, BRD1 / RFU, MARS / Fold change vs veh, MARS / RFU, ZNF655 / Fold change vs veh, ZNF655 / RFU, FAHD1 / Fold change vs veh, FAHD1 / RFU, BDP1 / Fold change vs veh, BDP1 / RFU, LRRCC1 / Fold change vs veh, LRRCC1 / RFU, ARID1A / Fold change vs veh, ARID1A / RFU, ZNF146 / Fold change vs veh, ZNF146 / RFU, ZNF330 / Fold change vs veh, ZNF330 / RFU, GPN3 / Fold change vs veh, GPN3 / RFU, C9orf123 / Fold change vs veh, C9orf123 / RFU, N4BP2L2 / Fold change vs veh, N4BP2L2 / RFU, ARFIP1 / Fold change vs veh, ARFIP1 / RFU, FAM179B / Fold change vs veh, FAM179B / RFU, BCL10 / Fold change vs veh, BCL10 / RFU, UHRF1BP1L / Fold change vs veh, UHRF1BP1L / RFU, BET1 / Fold change vs veh, BET1 / RFU, CNOT2 / Fold change vs veh, CNOT2 / RFU, ZNF268 / Fold change vs veh, ZNF268 / Fold change vs veh, ZNF507 / RFU, DGCR2 / Fold change vs veh, DGCR2 / RFU, WDSUB1 / Fold change vs veh, WDSUB1 / Fold change vs veh, HSP90B1 /// MIR3652 / RFU, ADSS / Fold change vs veh, ADSS / RFU, GK / Fold change vs veh, GK / RFU, ZNF148 / Fold change vs veh, ZNF148 / RFU, TAF9 / Fold change vs veh, TAF9 / RFU, SLC1A5 / Fold change vs veh, SLC1A5 / RFU, SLMO2 / Fold change vs veh, SLMO2 / RFU, ABCC4 / Fold change vs veh, ABCC4 / RFU, LOC101060439 /// RAP1B / Fold change vs veh, LOC101060439 /// RAP1B / RFU, RFX7 / Fold change vs veh, RFX7 / RFU, GTPBP10 / Fold change vs veh, GTPBP10 / RFU, CNEP1R1 / Fold change vs veh, CNEP1R1 / RFU, BIVM-ERCC5 /// ERCC5 / Fold change vs veh, BIVM-ERCC5 /// ERCC5 / RFU, ILF3 / Fold change vs veh, ILF3 / RFU 11762660_at / Fold change /veh 11762660_at / RFU VCAN (11757783_s_at) / Fold change /veh VCAN (11757783_s_at) / RFU DDX43 (11728927_at) / Fold change /veh DDX43 (11728927_at) / RFU KRT8 (11758188_x_at) / Fold change /veh KRT8 (11758188_x_at) / RFU NKD1 (11759106_at) / Fold change /veh NKD1 (11759106_at) / RFU SRD5A1 (11742802_a_at) / Fold change /veh SRD5A1 (11742802_a_at) / RFU TPSAB1 /// TPSB2 (11721975_s_at) / Fold change /veh TPSAB1 /// TPSB2 (11721975_s_at) / RFU GSTM3 (11746129_a_at) / Fold change /veh GSTM3 (11746129_a_at) / RFU IL23R (11737362_x_at) / Fold change /veh IL23R (11737362_x_at) / RFU TMEM51 (11727254_a_at) / Fold change /veh TMEM51 (11727254_a_at) / RFU PIWIL2 (11732686_x_at) / Fold change /veh PIWIL2 (11732686_x_at) / RFU ORM1 (11744905_x_at) / Fold change /veh ORM1 (11744905_x_at) / RFU CCDC152 (11743942_at) / Fold change /veh CCDC152 (11743942_at) / RFU ECM1 (11717891_a_at) / Fold change /veh ECM1 (11717891_a_at) / RFU IL23R (11748794_a_at) / Fold change /veh IL23R (11748794_a_at) / RFU TNFAIP8L3 (11732012_x_at) / Fold change /veh TNFAIP8L3 (11732012_x_at) / RFU MBOAT4 (11741988_at) / Fold change /veh MBOAT4 (11741988_at) / RFU 11764193_at / Fold change /veh 11764193_at / RFU TMEM53 (11763286_at) / Fold change /veh TMEM53 (11763286_at) / RFU MAGEB2 (11727129_at) / Fold change /veh MAGEB2 (11727129_at) / RFU TMEM200A (11744735_a_at) / Fold change /veh TMEM200A (11744735_a_at) / RFU CCDC152 (11751479_a_at) / Fold change /veh CCDC152 (11751479_a_at) / RFU FAM211A (11726209_a_at) / Fold change /veh FAM211A (11726209_a_at) / RFU RGS16 (11746705_a_at) / Fold change /veh RGS16 (11746705_a_at) / RFU VCAN (11755009_s_at) / Fold change /veh VCAN (11755009_s_at) / RFU RHOB (11743442_s_at) / Fold change /veh RHOB (11743442_s_at) / RFU RGS16 (11720943_a_at) / Fold change /veh RGS16 (11720943_a_at) / RFU RGS16 (11720944_at) / Fold change /veh RGS16 (11720944_at) / RFU, VPS4B / Fold change vs veh, VPS4B / RFU, CREB1 / Fold change vs veh, CREB1 / RFU, DNAJC13 / Fold change vs veh, DNAJC13 / RFU, GNAQ / Fold change vs veh, GNAQ / RFU, CDK5R1 / Fold change vs veh, CDK5R1 / RFU, ZRANB3 / Fold change vs veh, ZRANB3 / RFU, CUL4A / Fold change vs veh, CUL4A / RFU, CCNY / Fold change vs veh, CCNY / RFU, UFL1 / Fold change vs veh, UFL1 / RFU, COG3 / Fold change vs veh, COG3 / RFU, DIAPH2 / Fold change vs veh, DIAPH2 / RFU, SKA2 / Fold change vs veh, SKA2 / RFU, AFF3 / Fold change vs veh, AFF3 / RFU, LMF1 / Fold change vs veh, LMF1 / RFU, IPO11 / Fold change vs veh, IPO11 / RFU, DFFB / Fold change vs veh, DFFB / RFU, FOXP1 / Fold change vs veh, FOXP1 / RFU, CARD8 / Fold change vs veh, CARD8 / RFU, STRN3 / Fold change vs veh, STRN3 / RFU, ADK / Fold change vs veh, ADK / RFU, RASSF2 / Fold change vs veh, RASSF2 / RFU, WIPF1 / Fold change vs veh, WIPF1 / RFU, LARP1B / Fold change vs veh, LARP1B / RFU, RASA1 / Fold change vs veh, RASA1 / RFU, RB1 / Fold change vs veh, RB1 / RFU, PPFIA1 / Fold change vs veh, PPFIA1 / RFU, MAT2A / Fold change vs veh, MAT2A / RFU, CCT5 / Fold change vs veh, CCT5 / RFU, WDR92 / Fold change vs veh, WDR92 / RFU, CUX1 / Fold change vs veh, CUX1 / RFU, TTC7A / Fold change vs veh, TTC7A / RFU, TMEM135 / Fold change vs veh, TMEM135 / RFU, DEPTOR / Fold change vs veh, DEPTOR / RFU, CPM / Fold change vs veh, CPM / RFU, DNAJB6 / Fold change vs veh, DNAJB6 / RFU, CACNA2D3 / Fold change vs veh, CACNA2D3 / RFU, DTX4 / Fold change vs veh, DTX4 / RFU, TFCP2 / Fold change vs veh, TFCP2 / RFU, GMCL1 /// GMCL1P1 / Fold change vs veh, GMCL1 /// GMCL1P1 / RFU, AEBP2 / Fold change vs veh, AEBP2 / RFU, SNHG1 /// SNORD22 /// SNORD25 /// SNORD26 /// SNORD27 /// SNORD28 /// SNORD29 /// SNORD31 / Fold change vs veh, SNHG1 /// SNORD22 /// SNORD25 /// SNORD26 /// SNORD27 /// SNORD28 /// SNORD29 /// SNORD31 / Fold change (Aza/veh), C12orf56 (ProbeSet 11735607_a_at) / Fold change (ACY-1035/veh), C12orf56 (ProbeSet 11735607_a_at) / Fold change (Aza/veh), FGFR1OP (ProbeSet 11751329_s_at) / Fold change (ACY-1035/veh), FGFR1OP (ProbeSet 11751329_s_at) / Fold change (Aza/veh), VPS36 (ProbeSet 11739960_a_at) / Fold change (ACY-1035/veh), VPS36 (ProbeSet 11739960_a_at) / RFU SYPL1 (11715823_x_at) / Fold change /veh SYPL1 (11715823_x_at) / RFU IGFBP7 (11715501_s_at) / Fold change /veh IGFBP7 (11715501_s_at) / RFU REEP3 (11722064_at) / Fold change /veh REEP3 (11722064_at) / RFU IGLL1 (11728026_x_at) / Fold change /veh IGLL1 (11728026_x_at): dose or concentration left out as unconfirmed. The format is cell-based, human.

For the molecule `Nc1ncn([C@@H]2O[C@H](CO)[C@@H](O)[C@H]2O)c(=O)n1` [azacitidine], the “RFU 11764098_at” value is 18.12 RFU.
